These results are taken from US20240117269A1, “NOVEL AROMATIC MONOTHIOKETALS AS FRAGRANCE COMPOUNDS” (SYMRISE AG, priority 2019, published 2024).

The nature of the test: Odor detection threshold (ODT), dynamic olfactometer TO8, expert group, EN 13725. The conditions noted are these: in air. The procedure: The odor perception threshold, i.e. the ODT value (“odor detection threshold”), was determined using a dynamic olfactometer designated TO8 and a group of experts in accordance with the EN 13725 standard, in which an odorous air sample is diluted with clean air. The dilution is presented to the test persons (testers) for evaluation. The odor description was carried out by a group of experts comprising 10 members.

In turn, `c1ccc2c(c1)COCS2` [4H-3,1-benzoxathiin] came in with an ODT value of 43.6 ng/L. For `CC1OCc2ccccc2S1` (centres unmarked) [2-methyl-4H-3,1-benzoxathiin], the ODT value turned out to be 3.6 ng/L.
